US20210355066A1 (CymaBay Therapeutics, Inc., priority 2020, published 2021)

Tests used:
[1] = crystalline form
Text: A weighed aluminum pan configured as the sample pan was placed on the […] side of the cell.

[2] = biological target: CYP 2C9 (Homo sapiens, UniProt P11712); conditions: tolbutamide hydroxylation assay; relative to (S)-enantiomer; cited from earlier work
Sequence of CYP 2C9 (P11712 whole entry, species assumed): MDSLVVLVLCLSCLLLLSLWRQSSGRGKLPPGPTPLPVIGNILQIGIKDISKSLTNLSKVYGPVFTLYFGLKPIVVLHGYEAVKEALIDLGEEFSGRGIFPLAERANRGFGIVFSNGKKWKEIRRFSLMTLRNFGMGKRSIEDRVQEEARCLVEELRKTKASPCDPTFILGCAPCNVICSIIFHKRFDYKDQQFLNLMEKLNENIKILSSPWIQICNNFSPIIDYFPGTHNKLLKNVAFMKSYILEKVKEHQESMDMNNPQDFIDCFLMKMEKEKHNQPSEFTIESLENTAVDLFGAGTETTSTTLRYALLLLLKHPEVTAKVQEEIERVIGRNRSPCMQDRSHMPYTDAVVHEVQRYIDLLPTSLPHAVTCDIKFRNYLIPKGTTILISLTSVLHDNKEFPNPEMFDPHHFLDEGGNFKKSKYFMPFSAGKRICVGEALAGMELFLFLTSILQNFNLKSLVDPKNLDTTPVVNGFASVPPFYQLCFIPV

| Molecule | stability to thermal stress [1] | fold less active as an inhibitor of CYP 2C9 than its (S)-enantiomer [2] |
| --- | --- | --- |
| 2-hydroxy-N,N,N-trimethylethan-1-aminium (2R)-2-(4-chlorophenyl)-2-[3-(trifluoromethyl)phenoxy]acetate [CB-0406 choline salt] | good stability to thermal stress | – |
| O=C(O)[C@H](Oc1cccc(C(F)(F)F)c1)c1ccc(Cl)cc1 [CB-0406, (2R)-2-(4-chlorophenyl)-2-[3-(trifluoromethyl)phenoxy]acetic acid] | – | approximately 20 fold |
